# From publication PMC9315535 (Microorganisms, 2022)
# Legend:
# CHIKV nsP2 protease = test system: CHIKV nsP2 protease; parameters: method as in PMID 33661906; settings: Targeted virus CHIKV; cited from earlier work
# ZIKV NS2B/NS3 protease = settings: Targeted virus ZIKV; cited from earlier work
# YFV NS2B/NS3 protease = settings: cited from earlier work
# CHIKV nsP2pro [1] = molecular target: T1, CHIKV nsP2pro (Chikungunya virus, UniProt Q8JUX6); experiment: biochemical; type: binding
# ZIKV NS2B/NS3pro [2] = molecular target: T2, ZIKV NS2B/NS3pro (Zika virus, UniProt A0A140DLX4); experiment: biochemical; type: binding
# ZIKV NS2B/NS3pro [3] = molecular target: T2, ZIKV NS2B/NS3pro; experiment: biochemical
# in vitro = settings: Cercopithecus aethiops (African green monkey)
# CHIKV nsP2pro [4] = molecular target: T1, CHIKV nsP2pro; experiment: biochemical
# ZIKV NS2B/NS3pro [5] = molecular target: T2, ZIKV NS2B/NS3pro; experiment: Thermal unfolding followed by Trp fluorescence, ZIKV protease; type: binding; settings: protease alone 43 °C
# [6] = test system: Zika virus (strain ZIKVBR); experiment: Virucidal / time-of-drug addition plaque-forming assay, ZIKV; type: cell-based; settings: 50 µM, Vero cells
# [7] = test system: yellow fever virus (vaccinal strain); type: cell-based
# [8] = test system: Chikungunya virus (strain ECSA); experiment: Virucidal / time-of-drug addition plaque-forming assay, CHIKV; type: cell-based; settings: 50 µM, virus and compound incubated 1 h at RT, Vero cells
# YFV NS2B/NS3pro [9] = molecular target: T3, YFV NS2B/NS3pro (Yellow fever virus, UniProt Q1X881); experiment: biochemical
# YFV NS2B/NS3pro [10] = molecular target: T3, YFV NS2B/NS3pro; type: binding
# [11] = ref https://www.drugbank.ca/drugs/DB00140; cited from earlier work
# CHIKV nsP2pro [12] = molecular target: T1, CHIKV nsP2pro; experiment: Thermal unfolding followed by Trp fluorescence, CHIKV protease; type: binding
# [13] = test system: serine protease of the human cytomegalovirus (HCMV); parameters: method as in PMID 8639546; settings: cited from earlier work
# YFV NS2B/NS3pro [14] = molecular target: T3, YFV NS2B/NS3pro; experiment: biochemical; type: binding
# [15] = read-out: Inhibition of protease activity, primary test
smiles,measurement,setting,value
COc1ccc([C@@H]2CC(=O)c3c(O)cc(O)cc3O2)cc1O [Hesperetin],IC50,CHIKV nsP2 protease,2.5 µM
same,IC50,ZIKV NS2B/NS3 protease,12.6 µM
same,IC50,YFV NS2B/NS3 protease,2 µM
COc1ccc2c(O[C@@H]3C[C@H]4C(=O)N[C@]5(C(=O)NS(=O)(=O)C6CC6)C[C@H]5/C=C\CCCCN(C)C(=O)[C@@H]4C3)cc(-c3nc(C(C)C)cs3)nc2c1C [Simeprevir],IC50,ZIKV NS2B/NS3 protease,2.6 µM
Cc1cc2nc3c(=O)[nH]c(=O)nc-3n(C[C@H](O)[C@H](O)[C@H](O)CO)c2cc1C [riboflavin],Excitation Shift,CHIKV nsP2pro [1],blue edge excitation shift
same,Kd,CHIKV nsP2pro [1],2.8 ± 0.7 µM
same,Excitation Shift,ZIKV NS2B/NS3pro [2],blue edge excitation shift
same,Kd,ZIKV NS2B/NS3pro [2]; KD ± STD,25.1 µM
same,Inhibition Mode,ZIKV NS2B/NS3pro [3],competitive
same,IC100,"ZIKV NS2B/NS3pro [3]; 1 h, read-out: Final concentration to inhibit 100% of protease",220 µM
same,IC50,ZIKV NS2B/NS3pro [3]; IC50 ± STD,79.4 ± 5 µM
same,IC50,ZIKV NS2B/NS3pro [3]; pIC50,79.4 µM
same,inhibition at 20 µM,ZIKV NS2B/NS3pro [3]; [15],10%
same,CC50,in vitro,72.3 µM
same,IC50,CHIKV nsP2pro [4],0.093 ± 0.0057 µM
same,Inhibition Mode,CHIKV nsP2pro [4],competitive
same,LE (ligand efficiency),CHIKV nsP2pro [4],0.36
same,Required concentration to inhibit protease (100%),CHIKV nsP2pro [4],5 µM
same,inhibition at 1 µM,CHIKV nsP2pro [4]; [15],~85%
same,inhibition at 20 µM,CHIKV nsP2pro [4]; [15],100%
same,Tm of protease-riboflavin complex,ZIKV NS2B/NS3pro [5],51 °C
same,Prevention of virus entry (virucidal assay),[6],not observed
same,Prevention of virus entry (virucidal assay),[7],not observed
same,"Decrease of CHIKV replication, virucidal assay",[8],44.35%
same,Final concentration to inhibit 100% of protease,YFV NS2B/NS3pro [9],200 µM
same,IC50,YFV NS2B/NS3pro [9],45.7 ± 2.9 µM
same,Inhibition Mode,YFV NS2B/NS3pro [9],competitive
same,inhibition at 20 µM,YFV NS2B/NS3pro [9]; [15],30%
same,Tm of protease-riboflavin complex,YFV NS2B/NS3pro [10],51 °C
same,ΔTm,YFV NS2B/NS3pro [10],4 °C
same,LogP,[11],−1.5
same,Tm of protease-riboflavin complex,CHIKV nsP2pro [12]; protease alone 47 °C,52 °C
same,ΔTm,"CHIKV nsP2pro [12]; protein 10 µM, riboflavin 75 µM",5 °C
same,IC50,[13],0.3 µM
same,Inhibition Mode,[13],competitive
same,Effect on cell viability,Vero cells,does not affect cell viability
same,Excitation Shift,YFV NS2B/NS3pro [14],blue edge excitation shift
same,Kd,YFV NS2B/NS3pro [14],18.2 ± 3.9 µM
